Test results as given in ChEMBL document CHEMBL1909046, “DrugMatrix in vitro pharmacology data”.

How the values were obtained:
[1] = target: T1, Muscarinic acetylcholine receptor M4 (Homo sapiens, UniProt P08173); assay type: cell membranes, CHO-K1, Membrane; details: cho-k1; note: in other assays of this panel Not Active means under 50% inhibition at 10 µM
T1 sequence (P08173 whole entry): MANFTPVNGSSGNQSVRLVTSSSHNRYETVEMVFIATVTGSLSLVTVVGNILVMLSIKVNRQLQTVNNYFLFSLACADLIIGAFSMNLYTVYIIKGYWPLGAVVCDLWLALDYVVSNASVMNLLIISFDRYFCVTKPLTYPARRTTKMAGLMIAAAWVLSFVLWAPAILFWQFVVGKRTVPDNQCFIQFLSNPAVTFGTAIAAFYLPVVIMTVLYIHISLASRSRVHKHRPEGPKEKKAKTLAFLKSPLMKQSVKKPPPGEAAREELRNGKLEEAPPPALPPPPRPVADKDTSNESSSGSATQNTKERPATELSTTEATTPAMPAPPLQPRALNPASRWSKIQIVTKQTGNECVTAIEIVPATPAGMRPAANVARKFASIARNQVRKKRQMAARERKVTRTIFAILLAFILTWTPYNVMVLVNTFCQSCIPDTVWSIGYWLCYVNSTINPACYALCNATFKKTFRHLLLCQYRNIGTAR

Substance-P receptor = Substance-P receptor (Homo sapiens, UniProt P25103); assay type: cell membranes, CHO, Membrane; details: cho; note: in other assays of this panel Not Active means under 50% inhibition at 10 µM
[2] = target: T2, C-C chemokine receptor type 4 (Homo sapiens, UniProt P51679); assay type: cell membranes, Membrane; details: chem-1; note: in other assays of this panel Not Active means under 50% inhibition at 10 µM
T2 sequence (P51679 whole entry): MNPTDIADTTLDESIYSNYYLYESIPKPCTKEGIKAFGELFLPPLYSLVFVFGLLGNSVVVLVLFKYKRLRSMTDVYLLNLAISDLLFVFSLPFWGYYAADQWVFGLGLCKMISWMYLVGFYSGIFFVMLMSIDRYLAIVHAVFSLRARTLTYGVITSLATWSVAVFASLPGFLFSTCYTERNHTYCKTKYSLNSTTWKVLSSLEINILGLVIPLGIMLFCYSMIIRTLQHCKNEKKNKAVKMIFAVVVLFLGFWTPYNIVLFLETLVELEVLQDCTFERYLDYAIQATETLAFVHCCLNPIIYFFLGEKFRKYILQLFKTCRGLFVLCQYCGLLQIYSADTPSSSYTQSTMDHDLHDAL

[3] = DRUGMATRIX: Phosphodiesterase PDE3 enzyme inhibition (substrate: [3H]cAMP + cAMP); assay type: tissue-based, Homo sapiens; details: platelet; Not Active = under 50% inhibition at 10 µM
Interstitial collagenase = target: T3, Interstitial collagenase (Homo sapiens, UniProt P03956); test: biochemical; assay type: tissue-based, Rheumatoid synovial fibroblasts;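 note: MMP-1 enzyme inhibition assay using a peptide substrate; in other assays of this panel Not Active means under 50% inhibition at 10 µM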
T3 sequence (P03956 whole entry): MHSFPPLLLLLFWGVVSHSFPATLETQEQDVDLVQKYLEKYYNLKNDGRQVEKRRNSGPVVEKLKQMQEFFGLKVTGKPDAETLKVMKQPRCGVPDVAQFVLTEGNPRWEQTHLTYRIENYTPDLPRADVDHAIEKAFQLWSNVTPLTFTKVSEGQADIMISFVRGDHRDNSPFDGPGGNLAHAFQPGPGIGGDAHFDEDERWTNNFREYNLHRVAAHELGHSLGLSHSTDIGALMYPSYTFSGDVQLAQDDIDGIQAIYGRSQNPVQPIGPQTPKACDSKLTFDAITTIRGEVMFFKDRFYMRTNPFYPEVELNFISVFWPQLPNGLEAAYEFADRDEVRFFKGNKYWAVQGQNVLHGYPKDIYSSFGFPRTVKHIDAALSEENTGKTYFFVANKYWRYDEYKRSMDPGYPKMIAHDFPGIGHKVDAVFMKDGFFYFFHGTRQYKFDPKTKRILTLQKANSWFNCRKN

[4] = target: Prostaglandin G/H synthase 1 (Homo sapiens, UniProt P23219); test: biochemical; assay type: tissue-based, Platelet; details: platelet
Estrogen receptor = target: T4, Estrogen receptor (Homo sapiens, UniProt P03372); details: sf9; note: in other assays of this panel Not Active means under 50% inhibition at 10 µM
T4 sequence (P03372 whole entry): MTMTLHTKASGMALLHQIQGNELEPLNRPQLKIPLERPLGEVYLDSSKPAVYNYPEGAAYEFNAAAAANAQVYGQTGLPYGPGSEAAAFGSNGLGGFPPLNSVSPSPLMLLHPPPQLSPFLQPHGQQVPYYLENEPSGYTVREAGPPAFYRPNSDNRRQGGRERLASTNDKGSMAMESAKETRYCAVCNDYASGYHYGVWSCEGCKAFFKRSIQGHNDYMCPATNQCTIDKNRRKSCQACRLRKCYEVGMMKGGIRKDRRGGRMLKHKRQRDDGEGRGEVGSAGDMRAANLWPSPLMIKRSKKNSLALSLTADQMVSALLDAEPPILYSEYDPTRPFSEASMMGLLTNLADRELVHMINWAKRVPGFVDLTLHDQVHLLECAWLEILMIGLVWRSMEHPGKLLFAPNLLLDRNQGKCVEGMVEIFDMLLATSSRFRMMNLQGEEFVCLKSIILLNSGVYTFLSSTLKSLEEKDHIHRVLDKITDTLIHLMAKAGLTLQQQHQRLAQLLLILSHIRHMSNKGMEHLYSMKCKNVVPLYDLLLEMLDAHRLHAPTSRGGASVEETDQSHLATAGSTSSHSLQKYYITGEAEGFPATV

Chain of Substance-P receptor (P25103 whole entry): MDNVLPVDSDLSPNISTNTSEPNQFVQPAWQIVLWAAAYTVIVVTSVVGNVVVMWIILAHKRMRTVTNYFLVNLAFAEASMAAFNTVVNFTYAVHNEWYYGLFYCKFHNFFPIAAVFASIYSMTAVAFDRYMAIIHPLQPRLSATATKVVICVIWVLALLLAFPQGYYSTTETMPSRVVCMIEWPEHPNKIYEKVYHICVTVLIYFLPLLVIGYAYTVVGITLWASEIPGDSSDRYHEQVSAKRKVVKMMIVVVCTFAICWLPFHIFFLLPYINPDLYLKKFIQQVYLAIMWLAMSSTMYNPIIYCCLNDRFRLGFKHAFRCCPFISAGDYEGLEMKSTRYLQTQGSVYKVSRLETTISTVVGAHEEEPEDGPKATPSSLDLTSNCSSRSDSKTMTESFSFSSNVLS
Chain of Prostaglandin G/H synthase 1 (P23219 whole entry): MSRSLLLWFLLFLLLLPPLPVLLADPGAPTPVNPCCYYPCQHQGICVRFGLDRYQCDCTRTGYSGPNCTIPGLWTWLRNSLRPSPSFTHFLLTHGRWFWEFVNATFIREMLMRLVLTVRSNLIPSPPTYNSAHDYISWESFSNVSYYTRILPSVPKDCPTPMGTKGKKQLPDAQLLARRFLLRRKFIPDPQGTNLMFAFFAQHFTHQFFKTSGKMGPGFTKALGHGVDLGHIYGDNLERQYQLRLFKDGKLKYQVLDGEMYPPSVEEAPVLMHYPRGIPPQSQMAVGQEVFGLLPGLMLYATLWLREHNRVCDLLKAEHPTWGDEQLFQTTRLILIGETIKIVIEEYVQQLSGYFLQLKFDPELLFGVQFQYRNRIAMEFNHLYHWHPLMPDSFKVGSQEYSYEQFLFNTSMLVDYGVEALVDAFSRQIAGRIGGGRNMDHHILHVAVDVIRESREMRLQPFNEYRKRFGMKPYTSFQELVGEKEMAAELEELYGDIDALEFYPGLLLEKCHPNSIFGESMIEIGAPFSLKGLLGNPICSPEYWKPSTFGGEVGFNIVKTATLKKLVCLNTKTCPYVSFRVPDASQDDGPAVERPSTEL

CC(C)Oc1ccc2c(=O)c(-c3ccccc3)coc2c1 [IPRIFLAVONE]
Not Active: IC50 [1] | IC50 (Substance-P receptor) | IC50 [2] | IC50 [3] | Ki [3] | IC50 (Interstitial collagenase)

C[C@H]1C[C@@H]2[C@H]([C@@H](O)C[C@@]3(C)[C@H]2CC[C@]3(O)C(=O)CO)[C@@]2(C)C=CC(=O)C=C12 [METHYLPREDNISOLONE]
Not Active: IC50 [1] | IC50 (Substance-P receptor) | IC50 [4] | IC50 [2] | IC50 [3] | Ki [3] | IC50 (Interstitial collagenase)

O=C(O)c1cn(-c2ccc(F)cc2)c2cc(N3CCNCC3)c(F)cc2c1=O [SARAFLOXACIN]
Not Active: IC50 [1] | IC50 (Substance-P receptor) | IC50 [4] | IC50 [2] | IC50 [3] | Ki [3] | IC50 (Interstitial collagenase)

CC(C)NCC(O)c1ccc(NS(C)(=O)=O)cc1 (stereo not given) [SOTALOL]
Not Active: IC50 [1] | IC50 (Substance-P receptor) | IC50 [4] | IC50 [2] | IC50 [3] | Ki [3] | IC50 (Interstitial collagenase)

CN(C)CCOC(c1ccccc1)c1ccccc1 [DIPHENHYDRAMINE]
Not Active: IC50 (Substance-P receptor) | IC50 [4] | IC50 [2] | IC50 (Interstitial collagenase) | IC50 (Estrogen receptor)

CCN1CCC[C@H]1CNC(=O)c1cc(S(N)(=O)=O)ccc1OC [LEVOSULPIRIDE]
Not Active: IC50 [1] | IC50 (Substance-P receptor) | IC50 [4] | IC50 [2] | IC50 [3] | Ki [3] | IC50 (Interstitial collagenase)

CCN(CC)CC(=O)Nc1c(C)cccc1C [LIDOCAINE]
Not Active: IC50 [1] | IC50 (Substance-P receptor) | IC50 [4] | IC50 [2] | IC50 [3] | Ki [3] | IC50 (Interstitial collagenase)

CCCCNc1ccc(C(=O)OCCN(C)C)cc1 [TETRACAINE]
Not Active: IC50 [1] | IC50 (Substance-P receptor) | IC50 [4] | IC50 [2] | IC50 [3] | Ki [3] | IC50 (Interstitial collagenase)

CNCCC(Oc1ccc(C(F)(F)F)cc1)c1ccccc1 (stereo not given) [FLUOXETINE]
Not Active: IC50 [1] | IC50 (Substance-P receptor) | IC50 [4] | IC50 [2] | IC50 (Interstitial collagenase)

CC[C@@H](C(=O)[C@@H](C)[C@@H](O)[C@H](C)[C@@H]1O[C@@H]([C@@H](CC)C(=O)O)CC[C@@H]1C)[C@H]1O[C@]2(C=C[C@@H](O)[C@]3(CC[C@@](C)([C@H]4CC[C@](O)(CC)[C@H](C)O4)O3)O2)[C@H](C)C[C@@H]1C [SALINOMYCIN]
Not Active: IC50 [1] | IC50 (Substance-P receptor) | IC50 [4] | IC50 [2] | IC50 [3] | Ki [3] | IC50 (Interstitial collagenase)

Cc1ccc(NC(=O)c2ccc(CN3CCN(C)CC3)cc2)cc1Nc1nccc(-c2cccnc2)n1 [IMATINIB]
Not Active: IC50 [1] | IC50 (Substance-P receptor) | IC50 [4] | IC50 [2] | IC50 (Interstitial collagenase) | IC50 (Estrogen receptor)

Cn1c(=O)c2nc[nH]c2n(C)c1=O.O [THEOPHYLLINE]
Not Active: IC50 [1] | IC50 (Substance-P receptor) | IC50 [4] | IC50 [2] | IC50 [3] | Ki [3] | IC50 (Interstitial collagenase)

CN(C/C=C/C#CC(C)(C)C)Cc1cccc2ccccc12 [TERBINAFINE]
Not Active: IC50 [1] | IC50 (Substance-P receptor) | IC50 [4] | IC50 [2] | IC50 [3] | Ki [3] | IC50 (Interstitial collagenase)
